Data taken from ChEMBL document CHEMBL5500412, “Discovery of Highly Selective, Potent, Covalent, and Orally Bioavailable Factor XIIa Inhibitors for the Treatment of Thrombo-Inflammation” (J Med Chem, 2024).
Activity calls are given as the source filed them. The calls are words filed in the database; no cut-off is given here.

Experiments:
Coagulation factor X = Coagulation factor X (Homo sapiens, UniProt P00742); experiment: Inhibition of FXa (unknown origin) using Z-D-Arg-Gly-Arg-pNA.2HCl as chromogenic substrate incubated for 20 mins followed by substrate addition by spectrophotometric analysis
Chymotrypsin = Chymotrypsin (Homo sapiens, UniProt Q99895+P17538+P40313+Q6GPI1); experiment: Inhibition of Chymotrypsin (unknown origin) using N-Suc-Ala-Ala-Pro-Phe-pNA as chromogenic substrate incubated for 20 mins followed by substrate addition by spectrophotometric analysis; format: protein assay
[1] = Selectivity index, ratio of IC50 for PKal (unknown origin) to IC50 for FXIIa (unknown origin)
Plasma [2] = experiment: Anticoagulant activity in non-activated human plasma assessed as prolongation of activated partial thromboplastin time measured after 260 mins; format: functional; details: 4.333 h
[3] = Selectivity index, ratio of IC50 for thrombin (unknown origin) to IC50 for FXIIa (unknown origin)
[4] = Selectivity index, ratio of IC50 for plasmin (unknown origin) to IC50 for FXIIa (unknown origin)
Mus musculus [5] = experiment: Antithrombotic activity in carrageenan induced thrombosis in male BALB/c mouse model assessed as inhibition of tail thrombosis at 20 mg/kg, IG administered for 9 days with carrageenan stimulation on day 7 by H and E staining based analysis; format: functional, organism-based; details: time 9.0 day
Mus musculus [6] = experiment: Antithrombotic activity in carrageenan induced thrombosis in male BALB/c mouse model assessed as thrombosis rate at 30 mg/kg, IG preadministered with PBS for 7 days followed by carrageenan stimulation on day 7 and measured after 2 days post compound administration relative to control; format: functional; details: time 2 day
[7] = Selectivity index, ratio of IC50 for chymotrypsin (unknown origin) to IC50 for FXIIa (unknown origin)
[8] = Stability of the compound in water under […] condition at pH 11 measured after 48 hrs; format: physicochemical; details: buffer, pH 11, 48 h
Plasma [9] = experiment: Anticoagulant activity in human plasma assessed as prolongation of activated partial thromboplastin time at 300 uM incubated for 2 mins by aPTT reagent based assay relative to control; format: functional
Mus musculus [10] = experiment: Antiinflammatory activity in carrageenan-induced thrombosis in male BALB/c mouse model assessed as reduction in IL-1 beta level at 20 mg/kg, po by ELISA method; format: functional, organism-based
Plasma [11] = experiment: Anticoagulant activity in mouse plasma at 25 uM measures upto 20 mins by aPTT reagent based analysis; format: functional, cell-free
Plasminogen = Plasminogen (Homo sapiens, UniProt P00747); experiment: Inhibition of plasmin (unknown origin) using PyroGlu-Phe-Lys-pNA.HCl as chromogenic substrate incubated for 20 mins followed by substrate addition by spectrophotometric analysis
[12] = Stability of the compound in water at pH 5 to 7 measured after 48 hrs; format: physicochemical; details: buffer, pH 5, 48 h
[13] = Selectivity index, ratio of IC50 for FXIa (unknown origin) to IC50 for FXIIa (unknown origin)
Plasma [14] = experiment: Anticoagulant activity in non-activated human plasma at 10 to 25 uM measured after 260 mins; format: functional, cell-free; details: dose 10-25 µM
[15] = Selectivity index, ratio of IC50 for tPA (unknown origin) to IC50 for FXIIa (unknown origin)
Trypsin = Trypsin (Homo sapiens, UniProt P07477+P07478+P35030); experiment: Inhibition of trypsin (unknown origin) using Bz-lle-Glu(gamma-OR)-Gly-Arg-pNA.HCl as chromogenic substrate incubated for 20 mins followed by substrate addition by spectrophotometric analysis; format: protein assay
[16] = Selectivity index, ratio of IC50 for FXa (unknown origin) to IC50 for FXIIa (unknown origin)
Mus musculus [17] = experiment: Antiinflammatory activity in carrageenan-induced thrombosis in male BALB/c mouse model assessed as reduction in IL-6 level at 20 mg/kg, po by ELISA method; format: functional, organism-based
RAW264.7 [18] = experiment: Cytotoxicity against mouse RAW264.7 cells assessed as reduction in cell viability at upto 40 uM by CCK-8 assay; format: toxicity, cell-based; details: raw264.7, 40 µM
Plasma [19] = experiment: Selectivity ratio of anticoagulant activity in non-activated human plasma at 10 to 25 uM measured after 260 mins to anticoagulant activity in non-activated human plasma at 10 to 25 uM measured after 2 mins; format: functional; details: dose 10-25 µM, 4.333 h
[20] = molecular target: Tissue-type plasminogen activator (Homo sapiens, UniProt P00750); experiment: Inhibition of tPA (unknown origin) using H-D-lle-Pro-Arg-pNA-2HCl as chromogenic substrate incubated for 20 mins followed by substrate addition by spectrophotometric analysis
Plasma [21] = experiment: Anticoagulant activity in human blood plasma at 75 uM measures upto 20 mins by aPTT reagent based analysis; format: functional, cell-free
RAW264.7 [22] = experiment: Antiinflammatory activity in mouse RAW264.7 cells assessed as inhibition of LPS-induced IL-6 expression preincubated for 12 hrs followed by LPS stimulation and measured after 12 hrs by real time quantitative RT-PCR assay; format: functional, cell-based; details: dose 5-10 µM, time 24.0 hrs
Mus musculus [23] = experiment: Antithrombotic activity in carrageenan induced thrombosis in male BALB/c mouse model assessed as reduction in tail thrombosis administered as IG dose preadministered with PBS for 7 days followed by carrageenan stimulation on day 7 and measured after 2 days post compound administration; format: functional, organism-based; details: dose 10-30 mg/kg, time 2.0 day
RAW264.7 [24] = experiment: Antiinflammatory activity in mouse RAW264.7 cells assessed as inhibition of LPS-induced IL-6 expression at 10 uM preincubated for 12 hrs followed by LPS stimulation and measured after 12 hrs by real time quantitative RT-PCR assay; format: functional, cell-based; details: time 24.0 hrs
[25] = Selectivity index, ratio of IC50 for trypsin (unknown origin) to IC50 for FXIIa (unknown origin)
[26] = Stability of the compound in water under acidic condition at pH 3 measured after 48 hrs; format: physicochemical; details: buffer, pH 3, 48 h
Plasma kallikrein = Plasma kallikrein (Homo sapiens, UniProt P03952); experiment: Inhibition of PKal (unknown origin) using H-D-Pro-Phe-Arg-pNA-2HCl as substrate incubated for 20 mins followed by substrate addition by spectrophotometric analysis
Prothrombin = Prothrombin (Homo sapiens, UniProt P00734); experiment: Inhibition of thrombin (unknown origin) using H-D-Phe-Pip-Arg-pNA-2HCl as substrate incubated for 20 mins followed by substrate addition by spectrophotometric analysis
RAW264.7 [27] = experiment: Antiinflammatory activity in mouse RAW264.7 cells assessed as inhibition of LPS-induced IL-1 beta expression preincubated for 12 hrs followed by LPS stimulation and measured after 12 hrs by real time quantitative RT-PCR assay; format: functional, cell-based; details: dose 5-10 µM, time 24.0 hrs
RAW264.7 [28] = experiment: Antiinflammatory activity in mouse RAW264.7 cells assessed as inhibition of LPS-induced IL-1 beta expression at 10 uM preincubated for 12 hrs followed by LPS stimulation and measured after 12 hrs by real time quantitative RT-PCR assay; format: functional, cell-based; details: time 24.0 hrs
Coagulation factor XI = Coagulation factor XI (Homo sapiens, UniProt P03951); experiment: Inhibition of FXIa (unknown origin) using p-Glu-Pro-Arg-pNA.HCl as chromogenic substrate incubated for 20 mins followed by substrate addition by spectrophotometric analysis
Chain of Coagulation factor XI (P03951 19-387 limits assumed): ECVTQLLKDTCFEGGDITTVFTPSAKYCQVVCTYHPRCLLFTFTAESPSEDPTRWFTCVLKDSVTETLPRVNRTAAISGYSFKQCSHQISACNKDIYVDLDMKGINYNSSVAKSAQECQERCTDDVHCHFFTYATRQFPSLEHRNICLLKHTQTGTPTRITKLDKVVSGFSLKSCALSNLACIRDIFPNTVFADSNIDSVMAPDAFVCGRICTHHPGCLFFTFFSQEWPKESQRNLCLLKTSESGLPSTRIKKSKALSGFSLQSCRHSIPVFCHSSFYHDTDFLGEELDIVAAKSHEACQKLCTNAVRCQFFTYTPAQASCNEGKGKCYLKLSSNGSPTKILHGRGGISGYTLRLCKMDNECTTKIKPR
Chain of Coagulation factor XI (P03951 388-625 limits assumed): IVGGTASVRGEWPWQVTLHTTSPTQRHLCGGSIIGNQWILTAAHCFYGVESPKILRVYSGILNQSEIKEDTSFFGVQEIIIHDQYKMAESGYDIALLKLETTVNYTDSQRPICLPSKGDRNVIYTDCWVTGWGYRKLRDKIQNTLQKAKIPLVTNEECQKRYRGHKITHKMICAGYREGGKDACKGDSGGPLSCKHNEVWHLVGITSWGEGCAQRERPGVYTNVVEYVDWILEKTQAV

Chain of Coagulation factor X (P00742 41-179 limits assumed): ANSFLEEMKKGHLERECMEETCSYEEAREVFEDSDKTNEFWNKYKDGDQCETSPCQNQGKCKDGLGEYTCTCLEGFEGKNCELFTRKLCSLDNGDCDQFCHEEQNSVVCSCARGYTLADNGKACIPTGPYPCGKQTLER
Chain of Coagulation factor X (P00742 235-488 limits assumed): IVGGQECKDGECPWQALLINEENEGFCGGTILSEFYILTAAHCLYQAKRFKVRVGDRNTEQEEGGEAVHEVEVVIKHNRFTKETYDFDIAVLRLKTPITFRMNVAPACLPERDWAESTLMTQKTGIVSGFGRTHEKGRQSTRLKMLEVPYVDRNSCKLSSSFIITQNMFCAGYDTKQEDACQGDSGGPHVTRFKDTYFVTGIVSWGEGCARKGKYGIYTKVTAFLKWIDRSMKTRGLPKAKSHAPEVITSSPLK
Chain of Plasma kallikrein (P03952 20-390 limits assumed): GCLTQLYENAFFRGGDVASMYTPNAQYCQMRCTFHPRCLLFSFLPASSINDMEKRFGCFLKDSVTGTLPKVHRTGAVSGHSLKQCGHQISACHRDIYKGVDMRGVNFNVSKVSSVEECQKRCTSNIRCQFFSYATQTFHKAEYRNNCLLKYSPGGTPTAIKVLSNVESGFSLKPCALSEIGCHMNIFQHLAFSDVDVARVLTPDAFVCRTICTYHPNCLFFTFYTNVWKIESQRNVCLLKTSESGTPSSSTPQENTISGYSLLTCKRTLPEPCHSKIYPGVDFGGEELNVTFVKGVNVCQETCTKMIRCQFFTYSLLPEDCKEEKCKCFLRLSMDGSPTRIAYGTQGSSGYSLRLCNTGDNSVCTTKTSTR
Chain of Plasma kallikrein (P03952 391-638 limits assumed): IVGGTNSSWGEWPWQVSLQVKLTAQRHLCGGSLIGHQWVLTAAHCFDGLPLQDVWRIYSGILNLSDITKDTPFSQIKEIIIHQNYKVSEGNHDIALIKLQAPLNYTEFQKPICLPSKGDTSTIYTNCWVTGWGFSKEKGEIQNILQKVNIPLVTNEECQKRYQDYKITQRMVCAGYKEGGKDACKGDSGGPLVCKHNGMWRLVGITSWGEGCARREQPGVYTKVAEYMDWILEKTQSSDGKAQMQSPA
Chain of Tissue-type plasminogen activator (P00750 whole entry): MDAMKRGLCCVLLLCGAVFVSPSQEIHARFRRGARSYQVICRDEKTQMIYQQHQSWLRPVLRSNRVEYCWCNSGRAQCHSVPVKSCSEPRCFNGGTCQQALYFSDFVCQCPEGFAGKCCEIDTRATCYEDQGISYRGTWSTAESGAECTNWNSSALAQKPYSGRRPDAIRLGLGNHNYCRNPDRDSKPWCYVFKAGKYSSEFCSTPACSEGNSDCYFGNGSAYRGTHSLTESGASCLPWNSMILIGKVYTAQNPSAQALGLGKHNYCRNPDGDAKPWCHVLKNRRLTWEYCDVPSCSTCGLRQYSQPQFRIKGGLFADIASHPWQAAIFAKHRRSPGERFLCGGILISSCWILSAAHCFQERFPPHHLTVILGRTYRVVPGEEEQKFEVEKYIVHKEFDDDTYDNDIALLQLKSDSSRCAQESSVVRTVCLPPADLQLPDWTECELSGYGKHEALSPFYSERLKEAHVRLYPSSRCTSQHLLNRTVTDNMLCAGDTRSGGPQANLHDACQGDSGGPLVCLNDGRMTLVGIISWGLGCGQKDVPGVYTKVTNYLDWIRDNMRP
Chain of Plasminogen (P00747 97-580 limits assumed): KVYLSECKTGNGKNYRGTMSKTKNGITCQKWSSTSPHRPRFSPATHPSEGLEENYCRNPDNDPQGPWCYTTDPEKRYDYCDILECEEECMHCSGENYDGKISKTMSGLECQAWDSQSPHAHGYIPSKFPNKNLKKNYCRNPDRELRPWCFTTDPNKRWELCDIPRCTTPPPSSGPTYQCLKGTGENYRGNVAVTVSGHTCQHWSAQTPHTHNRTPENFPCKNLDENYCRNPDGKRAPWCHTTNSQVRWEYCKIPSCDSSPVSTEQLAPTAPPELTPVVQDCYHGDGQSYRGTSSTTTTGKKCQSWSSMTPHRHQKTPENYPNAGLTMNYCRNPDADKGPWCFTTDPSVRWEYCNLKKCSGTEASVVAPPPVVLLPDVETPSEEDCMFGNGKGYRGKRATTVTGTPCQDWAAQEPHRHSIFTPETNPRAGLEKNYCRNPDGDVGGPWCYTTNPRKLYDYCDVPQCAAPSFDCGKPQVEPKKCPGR
Chain of Plasminogen (P00747 581-810 limits assumed): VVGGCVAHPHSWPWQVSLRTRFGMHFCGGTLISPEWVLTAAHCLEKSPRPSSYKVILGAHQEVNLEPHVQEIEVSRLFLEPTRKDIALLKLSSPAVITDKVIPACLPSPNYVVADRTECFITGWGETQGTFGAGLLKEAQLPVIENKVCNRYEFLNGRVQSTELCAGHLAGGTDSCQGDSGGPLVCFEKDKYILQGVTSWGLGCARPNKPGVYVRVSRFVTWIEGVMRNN

Question: For `CC(C)N1CCN(c2ccc(C(=O)n3nc(-c4ccccn4)nc3N)c3ccccc23)CC1`, which IC50 (Coagulation factor X) is on record?
Answer: The IC50 was > 25 µM.

Question: And the IC50 (Chymotrypsin)?
Answer: Its IC50 is > 25 µM.

Question: What about the Ratio IC50 [1] of the same compound?
Answer: The Ratio IC50 was > 670.

Question: What about the EC1.5 (Plasma [2]) of the same compound?
Answer: The EC1.5 was 14 µM.

Question: And the Ratio IC50 [3]?
Answer: The Ratio IC50 was 910.

Question: What about the Ratio IC50 [4] of the same compound?
Answer: The Ratio IC50 was > 670.

Question: And the Activity (Mus musculus [5])?
Answer: Its Activity is “Active”.

Question: What about the Activity (Mus musculus [6]) of the same compound?
Answer: The Activity was ~30%.

Question: What about the Ratio IC50 [7] of the same compound?
Answer: Its Ratio IC50 is > 670.

Question: And the Stability [8]?
Answer: Its Stability is “Stable”.

Question: What about the Activity (Plasma [9]) of the same compound?
Answer: Its Activity is 542%.

Question: What about the Activity (Mus musculus [10]) of the same compound?
Answer: The Activity was “Active”.

Question: What about the Activity (Plasma [11]) of the same compound?
Answer: Its Activity is “Active”.

Question: And the IC50 (Plasminogen)?
Answer: Its IC50 is > 25 µM.

Question: And the Stability [12]?
Answer: Its Stability is “Stable”.

Question: And the Ratio IC50 [13]?
Answer: The Ratio IC50 was > 670.

Question: What about the Activity (Plasma [14]) of the same compound?
Answer: The Activity was “Active”.

Question: And the Ratio IC50 [15]?
Answer: The Ratio IC50 was > 670.

Question: And the IC50 (Trypsin)?
Answer: Its IC50 is > 25 µM.

Question: What about the Ratio IC50 [16] of the same compound?
Answer: The Ratio IC50 was > 670.

Question: And the Activity (Mus musculus [17])?
Answer: The Activity was “Active”.

Question: What about the Activity (RAW264.7 [18]) of the same compound?
Answer: Its Activity is “Non-Toxic”.

Question: And the Ratio (Plasma [19])?
Answer: The Ratio was 2.

Question: And the IC50 [20]?
Answer: The IC50 was > 25 µM.

Question: What about the Activity (Plasma [21]) of the same compound?
Answer: Its Activity is “Active”.

Question: What about the Activity (RAW264.7 [22]) of the same compound?
Answer: Its Activity is “Dose-Dependent Effect”.

Question: What about the Activity (Mus musculus [23]) of the same compound?
Answer: Its Activity is “Dose-Dependent Effect”.

Question: What about the Activity (RAW264.7 [24]) of the same compound?
Answer: Its Activity is “Active”.

Question: What about the Ratio IC50 [25] of the same compound?
Answer: Its Ratio IC50 is > 670.

Question: And the Stability [26]?
Answer: Its Stability is “Stable”.

Question: What about the IC50 (Plasma kallikrein) of the same compound?
Answer: Its IC50 is > 25 µM.

Question: And the IC50 (Prothrombin)?
Answer: Its IC50 is 20 µM.

Question: And the Activity (RAW264.7 [27])?
Answer: Its Activity is “Dose-Dependent Effect”.

Question: And the Activity (RAW264.7 [28])?
Answer: Its Activity is “Active”.

Question: And the IC50 (Coagulation factor XI)?
Answer: The IC50 was > 25 µM.

Question: Which IC50 (Coagulation factor X) does the source give for `CC(C)N1CCCN(c2ccc(C(=O)n3nc(-c4ccccn4)nc3N)c3ccccc23)CC1` here?
Answer: The IC50 was > 25 µM.

Question: And the IC50 (Chymotrypsin)?
Answer: The IC50 was > 25 µM.

Question: And the Ratio IC50 [1]?
Answer: The Ratio IC50 was > 1190.

Question: What about the EC1.5 (Plasma [2]) of the same compound?
Answer: Its EC1.5 is 9 µM.

Question: What about the Ratio IC50 [3] of the same compound?
Answer: Its Ratio IC50 is 210.

Question: What about the Ratio IC50 [4] of the same compound?
Answer: The Ratio IC50 was > 1190.

Question: What about the Activity (Mus musculus [5]) of the same compound?
Answer: Its Activity is “Active”.

Question: And the Activity (Mus musculus [6])?
Answer: Its Activity is ~10%.

Question: What about the Ratio IC50 [7] of the same compound?
Answer: Its Ratio IC50 is > 1190.

Question: What about the Stability [8] of the same compound?
Answer: The Stability was “Stable”.

Question: And the Activity (Plasma [9])?
Answer: Its Activity is 905%.

Question: And the Activity (Mus musculus [10])?
Answer: The Activity was “Active”.

Question: And the Activity (Plasma [11])?
Answer: The Activity was “Active”.

Question: And the IC50 (Plasminogen)?
Answer: Its IC50 is > 25 µM.

Question: And the Stability [12]?
Answer: The Stability was “Stable”.

Question: And the Ratio IC50 [13]?
Answer: The Ratio IC50 was > 1190.

Question: And the Activity (Plasma [14])?
Answer: The Activity was “Active”.

Question: And the Ratio IC50 [15]?
Answer: Its Ratio IC50 is > 1190.

Question: What about the IC50 (Trypsin) of the same compound?
Answer: Its IC50 is > 25 µM.

Question: What about the Ratio IC50 [16] of the same compound?
Answer: Its Ratio IC50 is > 1190.

Question: What about the Activity (Mus musculus [17]) of the same compound?
Answer: The Activity was “Active”.

Question: And the Activity (RAW264.7 [18])?
Answer: The Activity was “Non-Toxic”.

Question: What about the Ratio (Plasma [19]) of the same compound?
Answer: Its Ratio is 2.

Question: And the IC50 [20]?
Answer: The IC50 was > 25 µM.

Question: And the Activity (Plasma [21])?
Answer: The Activity was “Active”.

Question: What about the Activity (RAW264.7 [22]) of the same compound?
Answer: Its Activity is “Dose-Dependent Effect”.

Question: What about the Activity (Mus musculus [23]) of the same compound?
Answer: Its Activity is “Dose-Dependent Effect”.

Question: And the Activity (RAW264.7 [24])?
Answer: Its Activity is “Active”.

Question: And the Ratio IC50 [25]?
Answer: The Ratio IC50 was > 1190.

Question: And the Stability [26]?
Answer: Its Stability is “Stable”.

Question: What about the IC50 (Plasma kallikrein) of the same compound?
Answer: The IC50 was > 25 µM.

Question: What about the IC50 (Prothrombin) of the same compound?
Answer: The IC50 was 7 µM.

Question: And the Activity (RAW264.7 [27])?
Answer: Its Activity is “Dose-Dependent Effect”.

Question: What about the Activity (RAW264.7 [28]) of the same compound?
Answer: The Activity was “Active”.

Question: What about the IC50 (Coagulation factor XI) of the same compound?
Answer: Its IC50 is > 25 µM.
